Results: US20090088461A1, “Methods of Treating or Preventing Cardiac Disease Associated With a High Fat Diet” (Synvista Therapeutics, Inc., priority 2007, published 2009)
Entries after “also recorded” stand apart in the source; their conditions may differ.

What was measured:
Format in all cases: in vivo
[1] = system: cardiac hypertrophy (β-MHC, α-MHC); test: Assessment of cardiac hypertrophy in HF-fed mice; conditions: HF diet; for Mean myocyte diameter / Total LV mass / Total cardiac mass: 1 mg/kg/day oral gavage; for Gene expression Alpha MHC / Gene expression Beta MHC: real time RT-PCR
Source text: Adult (8-week-old) male […] mice (Precinct Animal Centre, Melbourne, Australia) and RAGE knockout (KO) mice^17 ([…] al., J Clin Invest. 113:1641-50, 2004) were housed in a temperature-controlled room on a 12-h light-dark cycle. Mice were placed on either a standard diet (AIN-93G; Specialty feeds, Perth AUS; n=10/group) or a high fat (HF) diet formulated to mimic a “Western fast food diet”, (SF05-031, Specialty Feeds; n=10). Both diets contained the same vitamin and calorie content. […] Animals receiving a HF diet were further randomized to receive alagebrium chloride at a dose of 1 mg/kg/day delivered by oral gavage. All groups were followed for 16 weeks. The total cardiac and isolated left ventricular mass was measured at sacrifice, and expressed adjusted for body surface area in square meters (m^2). […] Cardiac hypertrophy in obesity reactivates the fetal gene program, characterized by a switch to β-Myosin heavy chain (β-MHC) expression in the adult murine heart^8 (Ng et al., Circ Res. 68:1742-50, 1991). Gene expression of markers of pathological hypertrophy, β-MHC and α-MHC were assessed by real-time quantitative RT-PCR. This was performed using the TaqMan system based on real-time detection of accumulated fluorescence, as previously described^19 (Thomas et al., J Am Soc Nephrol. 16:2976-84, 2005). Gene expression was normalized to 18S mRNA and reported as ratios compared to the level of expression in untreated control mice, which were given the arbitrary value of one.

[2] = Physiological and biochemical parameters in HF-fed mice; conditions: HF diet, 1 mg/kg/day oral gavage; for Weight gain (% baseline): 16 weeks
Source text: Adult (8-week-old) male […] mice (Precinct Animal Centre, Melbourne, Australia) and RAGE knockout (KO) mice^17 ([…] al., J Clin Invest. 113:1641-50, 2004) were housed in a temperature-controlled room on a 12-h light-dark cycle. Mice were placed on either a standard diet (AIN-93G; Specialty feeds, Perth AUS; n=10/group) or a high fat (HF) diet formulated to mimic a “Western fast food diet”, (SF05-031, Specialty Feeds; n=10). Both diets contained the same vitamin and calorie content. […] Animals receiving a HF diet were further randomized to receive alagebrium chloride at a dose of 1 mg/kg/day delivered by oral gavage. All groups were followed for 16 weeks. The following parameters were serially measured in all groups: body weight; blood glucose, measured using a glucometer; systolic blood pressure, measured by tail-cuff plethysmography in conscious, warmed mice.

[3] = system: myocardial fibrosis (collagen I, collagen IV); test: Assessment of myocardial fibrosis in HF-fed mice; conditions: for collagen deposition / collagen accumulation associated with high fat feeding: HF-fed mice, histology (FIG. 1); for Gene expression Collagen I / Gene expression Collagen IV: HF diet, real time RT-PCR
Source text: Adult (8-week-old) male […] mice (Precinct Animal Centre, Melbourne, Australia) and RAGE knockout (KO) mice^17 ([…] al., J Clin Invest. 113:1641-50, 2004) were housed in a temperature-controlled room on a 12-h light-dark cycle. Mice were placed on either a standard diet (AIN-93G; Specialty feeds, Perth AUS; n=10/group) or a high fat (HF) diet formulated to mimic a “Western fast food diet”, (SF05-031, Specialty Feeds; n=10). Both diets contained the same vitamin and calorie content. […] Animals receiving a HF diet were further randomized to receive alagebrium chloride at a dose of 1 mg/kg/day delivered by oral gavage. All groups were followed for 16 weeks. Previous studies have shown that obesity is associated with an increase in intramyocardial fibrosis. Gene expression of markers of fibrosis, including collagens and fibronectin were assessed by real-time quantitative RT-PCR, as detailed above. Perivascular collagen deposition was assessed by Van Giesen's Stain and interstitial fibrosis was assessed by staining with Picrosirus red staining of organized collagen. […] Paraffin-fixed cardiac sections were also stained for collagen IV by immunohistochemistry, as previously described^12 (Candido et al., Circ Res. 92:785-92, 2003).

[4] = system: myocardial inflammation (IL-6, TNF α, ICAM-1, MCP-1, NF-κBp65); test: Assessment of myocardial inflammation in HF-fed mice; conditions: HF diet, real time RT-PCR
Source text: Adult (8-week-old) male […] mice (Precinct Animal Centre, Melbourne, Australia) and RAGE knockout (KO) mice^17 ([…] al., J Clin Invest. 113:1641-50, 2004) were housed in a temperature-controlled room on a 12-h light-dark cycle. Mice were placed on either a standard diet (AIN-93G; Specialty feeds, Perth AUS; n=10/group) or a high fat (HF) diet formulated to mimic a “Western fast food diet”, (SF05-031, Specialty Feeds; n=10). Both diets contained the same vitamin and calorie content. […] Animals receiving a HF diet were further randomized to receive alagebrium chloride at a dose of 1 mg/kg/day delivered by oral gavage. All groups were followed for 16 weeks. The expression of inflammatory cytokines, tumor necrosis factor (TNFα), interleukin-6 (IL-6), along with macrophage infiltration, is augmented following cardiac stress. The gene expression of IL-6, TNF α, the adhesion molecule, ICAM-1 and the chemokine, […] (MCP-1) in left ventricular homogenates were assessed by real-time quantitative RT-PCR. The myocardial expression of IL-6 protein was further quantitated by ELISA.

[5] = Wild-type mice, listed as AL, 1 mg/kg/day

Structure (SMILES): Cc1sc[n+](CC(=O)c2ccccc2)c1C.[Cl-] [alagebrium chloride, 3-(2-phenyl-2-oxoethyl)-4,5-dimethylthiazolium chloride]
- Mean myocyte diameter ([1]; RAGE KO mice): 19.5 ± 0.6 μm
- Total LV mass ([1]; RAGE KO mice): 9.7 ± 0.3 g/m^2
- Total cardiac mass ([1]; RAGE KO mice): 13.7 ± 0.6 g/m^2
- Gene expression Alpha MHC ([1]; RAGE KO mice): reduced
- Gene expression Beta MHC ([1]; RAGE KO mice): 1.6 ± 0.2 AU/18s
- Gene expression Alpha MHC ([1]; RAGE KO mice, listed as AL): 0.6 ± 0.2 AU/18s
- Total LV mass ([1]; Wild-type mice): 9.5 ± 0.3 g/m^2
- Total cardiac mass ([1]; Wild-type mice): 14.5 ± 0.4 g/m^2
- Mean myocyte diameter ([1]; Wild-type mice, 1 mg/kg/day): no effect
- Mean myocyte diameter [1, 5]: 19.7 ± 0.8 μm
- Gene expression Alpha MHC ([1]; Wild-type mice): reduced
- Gene expression Beta MHC ([1]; Wild-type mice): no effect
- Gene expression Alpha MHC ([1]; Wild-type mice, listed as AL): 0.7 ± 0.2 AU/18s
- Gene expression Beta MHC ([1]; Wild-type mice, listed as AL): 2.5 ± 0.3 AU/18s
- Glucose ([2]; RAGE KO mice): 13.7 ± 0.7 mmol/L
- Weight gain (% baseline) ([2]; RAGE KO mice): 44 ± 7 % baseline
- Weight gain (% baseline) ([2]; Wild-type mice, 1 mg/kg/day): reduced
- Weight gain (% baseline) [2, 5]: 27 ± 2 % baseline
- Glucose ([2]; Wild-type mice, 1 mg/kg/day): equivalent changes
- Glucose [2, 5]: 15.1 ± 0.5 mmol/L
- collagen deposition / collagen accumulation associated with high fat feeding [3]: unaffected
- collagen deposition / collagen accumulation associated with high fat feeding ([3]; listed as alegebrium chloride): reduced
- Gene expression Collagen I ([3]; RAGE KO mice): 0.8 ± 0.1 AU/18s
- Gene expression Collagen IV ([3]; RAGE KO mice): 0.9 ± 0.1 AU/18s
- Gene expression Collagen I ([3]; Wild-type mice): 1.6 ± 0.1 AU/18s
- Gene expression Collagen IV ([3]; Wild-type mice): 1.3 ± 0.1 AU/18s
- Gene expression ICAM-1 (%) ([4]; RAGE KO mice): reduced
- Gene expression Interleukin-6 (%) ([4]; RAGE KO mice): no significant effect
- Gene expression MCP-1 (%) ([4]; RAGE KO mice): reduced
- Gene expression P-65 (%) ([4]; RAGE KO mice): 0.3 ± 0.1 AU/18s
- Gene expression TNF-alpha (%) ([4]; RAGE KO mice): no significant effect
- Gene expression ICAM-1 (%) ([4]; RAGE KO mice, listed as AL): 0.2 ± 0.1 AU/18s
- Gene expression Interleukin-6 (%) ([4]; RAGE KO mice, listed as AL): 0.4 ± 0.1 AU/18s
- Gene expression MCP-1 (%) ([4]; RAGE KO mice, listed as AL): 0.2 ± 0.1 AU/18s
- Gene expression TNF-alpha (%) ([4]; RAGE KO mice, listed as AL): 0.4 ± 0.1 AU/18s
- Gene expression ICAM-1 (%) ([4]; Wild-type mice): reduced; also recorded: prevented
- Gene expression Interleukin-6 (%) ([4]; Wild-type mice): reduced; also recorded: prevented
- Gene expression MCP-1 (%) ([4]; Wild-type mice): reduced
- Gene expression TNF-alpha (%) ([4]; Wild-type mice): reduced; also recorded: prevented
- Gene expression ICAM-1 (%) ([4]; Wild-type mice, listed as AL): 0.2 ± 0.1 AU/18s
- Gene expression Interleukin-6 (%) ([4]; Wild-type mice, listed as AL): 0.2 ± 0.1 AU/18s
- Gene expression MCP-1 (%) ([4]; Wild-type mice, listed as AL): 0.4 ± 0.1 AU/18s
- Gene expression P-65 (%) ([4]; Wild-type mice, listed as AL): 0.8 ± 0.2 AU/18s
- Gene expression TNF-alpha (%) ([4]; Wild-type mice, listed as AL): 0.5 ± 0.2 AU/18s
- Gene expression P-65 (%) ([4]; Wild-type mice, listed as alagebirum chloride): prevented
